PubChem BioAssay (NCI)
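Cells were grown in 96-well plates and exposed to each compound for 48 hours at five concentrations; endpoints were interpolated linearly between bracketing concentrations, or set to the highest concentration if not reached. At the GI50, growth is halved. The concentration for full growth arrest is given as TGI.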

Legend:
Experiment in all cases: growth of human tumour cells (NCI), 48 h
[1] = tested on: BT-549 breast
[2] = tested on: NCI/ADR-RES ovarian
[3] = tested on: ACHN renal
[4] = tested on: 786-0 renal
[5] = tested on: DU-145 prostate
[6] = tested on: UACC-62 melanoma
[7] = tested on: PC-3 prostate
[8] = tested on: MALME-3M melanoma
[9] = tested on: RXF 393 renal
[10] = tested on: UACC-257 melanoma
[11] = tested on: SF-295 CNS
[12] = tested on: NCI-H522 lung
[13] = tested on: LOX IMVI melanoma
[14] = tested on: RPMI-8226 leukemia
[15] = tested on: NCI-H460 lung
[16] = tested on: SN12C renal
[17] = tested on: HCT-116 colon
[18] = tested on: MDA-MB-435
[19] = tested on: MOLT-4 leukemia
[20] = tested on: KM12 colon
[21] = tested on: A549 NSCLC
[22] = tested on: IGROV1 ovarian
[23] = tested on: U251 CNS
[24] = tested on: A498 renal
[25] = tested on: TK-10 renal
[26] = tested on: HOP-62 NSCLC
[27] = tested on: COLO 205 colon
[28] = tested on: OVCAR-3 ovarian
[29] = tested on: HL-60(TB) leukemia
[30] = tested on: CAKI-1 renal
[31] = tested on: MCF7 breast
[32] = tested on: SK-MEL-2 melanoma
[33] = tested on: SW-620 colon
[34] = tested on: UO-31 renal
[35] = tested on: SK-OV-3 ovarian
[36] = tested on: CCRF-CEM leukemia
[37] = tested on: NCI-H226 lung
[38] = tested on: M14 melanoma
[39] = tested on: SR leukemia
[40] = tested on: SNB-19 CNS
[41] = tested on: SK-MEL-28 melanoma
[42] = tested on: SF-268 CNS
[43] = tested on: HCT-15 colon
[44] = tested on: HS 578T breast
[45] = tested on: HT29 colon
[46] = tested on: T-47D breast
[47] = tested on: SNB-75 CNS
[48] = tested on: HCC-2998 colon
[49] = tested on: OVCAR-5 ovarian
[50] = tested on: OVCAR-8 ovarian
[51] = tested on: K-562 leukemia
[52] = tested on: SK-MEL-5 melanoma
[53] = tested on: NCI-H23 lung
[54] = tested on: SF-539 CNS
[55] = tested on: OVCAR-4 ovarian
[56] = tested on: MDA-MB-231 breast
[57] = tested on: HOP-92 NSCLC

`Nc1c(C(=O)c2cccc(-c3ccncc3)c2)cnn1-c1ccc(F)cc1` was tested, and the GI50 [1] was > 25 µM, the TGI [1] was > 25 µM and the GI50 [2] was > 25 µM. The TGI [2] was > 25 µM, the GI50 [3] was > 25 µM and the TGI [3] was > 25 µM. The GI50 [4] was > 25 µM, the TGI [4] was > 25 µM and the GI50 [5] was > 25 µM. The TGI [5] was > 25 µM, the GI50 [6] was > 25 µM and the TGI [6] was > 25 µM. For the same compound, the GI50 [7] was > 25 µM, the TGI [7] was > 25 µM and the GI50 [8] was > 25 µM. The TGI [8] was > 25 µM, the GI50 [9] was > 25 µM and the TGI [9] was > 25 µM. For the same compound, the GI50 [10] was > 25 µM, the TGI [10] was > 25 µM and the GI50 [11] was > 25 µM. The TGI [11] was > 25 µM, the GI50 [12] was 15.4 µM and the TGI [12] was > 25 µM. For the same compound, the GI50 [13] was > 25 µM, the TGI [13] was > 25 µM and the GI50 [14] was > 15.2 µM. For the same compound, the TGI [14] was > 25 µM, the GI50 [15] was > 25 µM and the TGI [15] was > 25 µM. The GI50 [16] was > 25 µM, the TGI [16] was > 25 µM and the GI50 [17] was > 25 µM. For the same compound, the TGI [17] was > 25 µM, the GI50 [18] was > 25 µM and the TGI [18] was > 25 µM. For the same compound, the GI50 [19] was > 25 µM, the TGI [19] was > 25 µM and the GI50 [20] was > 25 µM. For the same compound, the TGI [20] was > 25 µM, the GI50 [21] was > 25 µM and the TGI [21] was > 25 µM. For the same compound, the GI50 [22] was > 25 µM, the TGI [22] was > 25 µM and the GI50 [23] was > 25 µM. The TGI [23] was > 25 µM, the GI50 [24] was > 25 µM and the TGI [24] was > 25 µM. The GI50 [25] was > 25 µM, the TGI [25] was > 25 µM and the GI50 [26] was > 23.3 µM. For the same compound, the TGI [26] was > 25 µM, the GI50 [27] was > 25 µM and the TGI [27] was > 25 µM. For the same compound, the GI50 [28] was > 25 µM, the TGI [28] was > 25 µM and the GI50 [29] was > 5.67 µM. The TGI [29] was > 25 µM, the GI50 [30] was > 25 µM and the TGI [30] was > 25 µM. For the same compound, the GI50 [31] was > 25 µM, the TGI [31] was > 25 µM and the GI50 [32] was > 25 µM. For the same compound, the TGI [32] was > 25 µM, the GI50 [33] was > 25 µM and the TGI [33] was > 25 µM. For the same compound, the GI50 [34] was > 25 µM, the TGI [34] was > 25 µM and the GI50 [35] was > 25 µM. The TGI [35] was > 25 µM, the GI50 [36] was > 25 µM and the TGI [36] was > 25 µM. For the same compound, the GI50 [37] was > 25 µM, the TGI [37] was > 25 µM and the GI50 [38] was > 25 µM. The TGI [38] was > 25 µM, the GI50 [39] was > 25 µM and the TGI [39] was > 25 µM. The GI50 [40] was > 25 µM, the TGI [40] was > 25 µM and the GI50 [41] was > 25 µM. The TGI [41] was > 25 µM, the GI50 [42] was > 25 µM and the TGI [42] was > 25 µM. The GI50 [43] was > 25 µM, the TGI [43] was > 25 µM and the GI50 [44] was > 25 µM. For the same compound, the TGI [44] was > 25 µM, the GI50 [45] was > 25 µM and the TGI [45] was > 25 µM. For the same compound, the GI50 [46] was 9.94 µM, the TGI [46] was > 25 µM and the GI50 [47] was > 25 µM. For the same compound, the TGI [47] was > 25 µM, the GI50 [48] was > 25 µM and the TGI [48] was > 25 µM. For the same compound, the GI50 [49] was > 25 µM, the TGI [49] was > 25 µM and the GI50 [50] was > 25 µM. The TGI [50] was > 25 µM, the GI50 [51] was > 25 µM and the TGI [51] was > 25 µM. For the same compound, the GI50 [52] was 5.69 µM, the TGI [52] was > 25 µM and the GI50 [53] was > 25 µM. The TGI [53] was > 25 µM, the GI50 [54] was > 25 µM and the TGI [54] was > 25 µM. The GI50 [55] was > 25 µM, the TGI [55] was > 25 µM and the GI50 [56] was > 25 µM. For the same compound, the TGI [56] was > 25 µM, the GI50 [57] was > 25 µM and the TGI [57] was > 25 µM.
